Converted amounts (≈) assume the structure as drawn.
Tests used:
[1] = tested on: L1210; assay: Cytotoxicity against mouse L1210 cells; assay type: functional, cell-based
[2] = tested on: KB; assay: Cytotoxicity against human KB cells; assay type: functional, cell-based

SMILES | IC50 [1] [ng/mL] | IC50 [2] [ng/mL]
C=C1C[C@](OC)([C@H](O)C(=O)N[C@H]2OCO[C@H]3[C@@H]2O[C@H](C[C@H](O)CCCCC/C=C/C=C/C(=O)N[C@@H](CCCNC(=N)N)C(=O)O)C(C)(C)[C@@H]3OC)O[C@H](C)[C@@H]1C [6,7-DIHYDRO-ONNAMIDE A] | 4.6 (≈ 5.78 nM) | 5 (≈ 6.28 nM)
C=C1C[C@](OC)([C@H](O)C(=O)N[C@H]2OCO[C@H]3[C@@H]2O[C@H](CC(=O)CCC/C=C/C=C/C=C/C(=O)N[C@@H](CCCNC(=N)N)C(=O)O)C(C)(C)[C@@H]3OC)O[C@H](C)[C@@H]1C [11-OXO-ONNAMIDE A] | 9.2 (≈ 11.6 nM) | 13 (≈ 16.4 nM)
C=C1C[C@](OC)([C@H](O)C(=O)N[C@H]2OCO[C@H]3[C@@H]2O[C@H](CC(=O)CCCCC/C=C/C=C/C(=O)N[C@@H](CCCNC(=N)N)C(=O)O)C(C)(C)[C@@H]3OC)O[C@H](C)[C@@H]1C [6,7-DIHYDRO-11-OXO-ONNAMIDE A] | 16 (≈ 20.2 nM) | 23 (≈ 29 nM)
C=C1C[C@](OC)([C@H](O)C(=O)N[C@H]2OCO[C@H]3[C@@H]2O[C@H](C[C@H](O)CCC/C=C/C=C/C=C/C(=O)N[C@@H](CCCNC(=N)N)C(=O)O)C(C)(C)[C@@H]3OC)O[C@H](C)[C@@H]1C [ONNAMIDE A] | 2 (≈ 2.52 nM) | 3.6 (≈ 4.53 nM)
C=C1C[C@](OC)([C@H](O)C(=O)N[C@H]2OCO[C@H]3[C@@H]2O[C@H](C[C@H](O)CCC/C=C/C=C\C=C\C(=O)N[C@@H](CCCNC(=N)N)C(=O)O)C(C)(C)[C@@H]3OC)O[C@H](C)[C@@H]1C [4Z-ONNAMIDE A] | 1.5 (≈ 1.89 nM) | 2.9 (≈ 3.65 nM)

— ChEMBL document CHEMBL1148173, “Three New Onnamide Congeners from the Okinawan Marine Sponge Theonella Sp” (J Nat Prod, 1993)
